The source of these data is US9365499B2, “9-aminomethyl substituted tetracycline compounds” (KBP Biosciences Co., Ltd., priority 2011, dated 2016).

Values after ≈ are worked out from the molar mass of the structure shown. Like-named read-outs stand apart in the source and are kept apart here.

Holding throughout (assay): antibacterial activity in vitro, agar dilution method
Type in all cases: cell-based

One experiment relates to Acinetobacter baumannii. Conditions: read-out: antibacterial activity MIC, Acinetobacter baumannii. An excerpt:
(§1) The antibacterial spectrum and in vitro antibacterial activity of the compound of the present invention
(§2) Experimental method: the agar dilution method, with reference to Clinical And Laboratory Standards Institute. Methods for Dilution Antimicrobial Susceptibility Tests for Bacteria That Grow Aerobically; Approved Standard-Seventh Edition. CLSI Document M7-A7. Vol 26, no. 2, Wayne, Pa.: Clinical and Laboratory Standards Institute, 2006.
(§3) Wherein MIC represents the minimum inhibitory concentration, MIC90 represents the 90% inhibitory concentration.

In a further experiment the test system is Escherichia coli.
From the text: as §1, §2, §3

In another experiment the test system is Klebsiella oxytoca. As to conditions: Table 3.
From the text: as §1, §2, §3

In the next experiment the test system is Klebsiella pneumoniae.
From the text: as §1, §2, §3

Experiment [1] deals with Methicillin-resistant Staphycoccus epidermidis (MRSE). Conditions: Staphylococcus epidermidis, Table 3.
From the text: as §1, §2, §3

Experiment [2] has as its system Methicillin-resistant Staphylococcus aureus (MRSA).
From the text: as §1, §2, §3

In experiment [3] the test system is Acinetobacter calcoaceticus. Conditions: Table 4.
From the text: as §1, §2, §3

For the next experiment, the system named is Enterococcus faecalis. Conditions: Table 4.
From the text: as §1, §2, §3

In the next experiment the test system is Streptococus agalactiae. As to conditions: Table 4.
From the text: as §1, §2, §3

The MIC is the lowest concentration found to suppress growth. `CN(C)c1cc(CN2CC(C)(C)C2)c(O)c2c1C[C@H]1C[C@H]3[C@H](N(C)C)C(O)=C(C(N)=O)C(=O)[C@@]3(O)C(O)=C1C2=O` [Compound 1, (4S,4aS,5aR,12aS)-9-((3,3-dimethylazetidin-1-yl)methyl)-4,7-bis(dimethylamino)-3,10,12,12a-tetrahydroxy-1,1′-dioxo-1,4,4a,5,5a,6,11,12a-octahydrotetracene-2-carboxamide]: the minimum inhibitory concentration (MIC) in the experiment on Acinetobacter baumannii (Table 3, agar dilution) was 1 µg/mL (≈ 1.8 µM); against Escherichia coli (Table 3) it was 1 µg/mL (≈ 1.8 µM); in the experiment with Klebsiella oxytoca it was 1 µg/mL (≈ 1.8 µM); against Klebsiella pneumoniae (Table 3), 2 µg/mL (≈ 3.61 µM); in [1], 1 µg/mL (≈ 1.8 µM); in [2] (Table 3, agar dilution) it was 0.5 µg/mL (≈ 0.901 µM).
`CN(C)c1cc(CN2CC3(C2)CC(F)(F)C3)c(O)c2c1C[C@H]1C[C@H]3[C@H](N(C)C)C(O)=C(C(N)=O)C(=O)[C@@]3(O)C(O)=C1C2=O` [Compound 16, (4S,4aS,5aR,12aS)-9-((6,6-difluoro-2-azaspiro[3.3]heptan-2-yl)methyl)-4,7-bis(dimethylamino)-3,10,12,12a-tetrahydroxy-1,1′-dioxo-1,4,4a,5,5a,6,11,12a-octahydrotetracene-2-carboxamide]: the MIC with Acinetobacter baumannii (Table 3, agar dilution) was found to be 1 µg/mL (≈ 1.66 µM); in the experiment with Escherichia coli (Table 3), 1 µg/mL (≈ 1.66 µM); against Klebsiella oxytoca, 1 µg/mL (≈ 1.66 µM); against Klebsiella pneumoniae (Table 3) it was 1 µg/mL (≈ 1.66 µM); in [1] it was 0.5 µg/mL (≈ 0.83 µM); in experiment [2] (Table 3, agar dilution), 0.5 µg/mL (≈ 0.83 µM).
Turning to `CN(C)c1cc(CN2CC(F)C2)c(O)c2c1C[C@H]1C[C@H]3[C@H](N(C)C)C(O)=C(C(N)=O)C(=O)[C@@]3(O)C(O)=C1C2=O` [Compound 19, (4S,4aS,5aR,12aS)-4,7-bis(dimethylamino)-9-((3-fluoroazetidin-1-yl)methyl)-3,10,12,12a-tetrahydroxy-1,11-dioxo-1,4,4a,5,5a,6,11,12a-octahydrotetracene-2-carboxamide], the minimal inhibitory concentration (MIC) in the experiment on Acinetobacter baumannii (Table 3, agar dilution) stood at 0.25 µg/mL (≈ 0.459 µM); against Escherichia coli (Table 3) it was 1 µg/mL (≈ 1.84 µM); against Klebsiella oxytoca it was 0.25 µg/mL (≈ 0.459 µM); in the experiment with Klebsiella pneumoniae (Table 3), 1 µg/mL (≈ 1.84 µM); in experiment [1], 0.5 µg/mL (≈ 0.918 µM); in experiment [2] (Table 3, agar dilution), 0.5 µg/mL (≈ 0.918 µM).
`CN(C)c1cc(CN2CC3CC(C3)C2)c(O)c2c1C[C@H]1C[C@H]3[C@H](N(C)C)C(O)=C(C(N)=O)C(=O)[C@@]3(O)C(O)=C1C2=O` [Compound 24, (4S,4aS,5aR,12aS)-9-(3-azabicyclo[3.1.1]heptan-3-ylmethyl)-4,7-bis(dimethylamino)-3,10,12,12a-tetrahydroxy-1,1′-dioxo-1,4,4a,5,5a,6,11,12a-octahydrotetracene-2-carboxamide]: the MIC with Acinetobacter baumannii (Table 4, agar dilution) is 1 µg/mL (≈ 1.76 µM); in [3], 0.25 µg/mL (≈ 0.441 µM); against Enterococcus faecalis, 0.25 µg/mL (≈ 0.441 µM); with Escherichia coli (Table 4) it was 1 µg/mL (≈ 1.76 µM); in the experiment on Klebsiella pneumoniae (Table 4), 2 µg/mL (≈ 3.53 µM); in experiment [2] (Table 4, agar dilution) it was 0.5 µg/mL (≈ 0.882 µM). Moreover, the lowest concentration to inhibit growth with Streptococus agalactiae (MIC) was 0.125 µg/mL (≈ 0.221 µM).
For `CN(C)c1cc(CN2CC3C(C2)C3(C)C)c(O)c2c1C[C@H]1C[C@H]3[C@H](N(C)C)C(O)=C(C(N)=O)C(=O)[C@@]3(O)C(O)=C1C2=O` (stereo partly drawn) [Compound 27, (4S,4aS,5aR,12aS)-9-((6-dimethyl-3-azabicyclo[3.1.0]hexan-3-yl)methyl)-4,7-bis(dimethylamino)-3,10,12,12a-tetrahydroxy-1,1′-dioxo-1,4,4a,5,5a,6,11,12a-octahydrotetracene-2-carboxamide], the minimum inhibitory concentration (MIC) was 0.5 µg/mL (≈ 0.861 µM) with Acinetobacter baumannii (Table 4, agar dilution); 0.125 µg/mL (≈ 0.215 µM) in experiment [3]; 0.125 µg/mL (≈ 0.215 µM) in the experiment with Enterococcus faecalis; 2 µg/mL (≈ 3.44 µM) in the experiment on Escherichia coli (Table 4); 4 µg/mL (≈ 6.89 µM) against Klebsiella pneumoniae (Table 4); 0.5 µg/mL (≈ 0.861 µM) in [2] (Table 4, agar dilution). The compound further registered an MIC against Streptococus agalactiae of 0.125 µg/mL (≈ 0.215 µM).
For the compound `CN(C)c1cc(CN2CC3CCCC3C2)c(O)c2c1C[C@H]1C[C@H]3[C@H](N(C)C)C(O)=C(C(N)=O)C(=O)[C@@]3(O)C(O)=C1C2=O` (stereo partly drawn) [Compound 28, (4S,4aS,5aR,12aS)-4,7-bis(dimethylamino)-9-((hexahydrocyclopenta[c]pyrrol-2(1H)-yl)methyl)-3,10,12,12a-tetrahydroxy-1,1′-dioxo-1,4,4a,5,5a,6,11,12a-octahydrotetracene-2-carboxamide], the MIC was 1 µg/mL (≈ 1.72 µM) in the experiment on Acinetobacter baumannii (Table 4, agar dilution); 0.125 µg/mL (≈ 0.215 µM) in experiment [3]; 0.06 µg/mL (≈ 0.103 µM) in the experiment on Enterococcus faecalis; 1 µg/mL (≈ 1.72 µM) against Escherichia coli (Table 4); 2 µg/mL (≈ 3.44 µM) in the experiment with Klebsiella pneumoniae (Table 4); 0.5 µg/mL (≈ 0.861 µM) in [2] (Table 4, agar dilution). The compound also registered a minimal inhibitory concentration (MIC) in the experiment on Streptococus agalactiae of 0.125 µg/mL (≈ 0.215 µM).
Turning to `CN(C)c1cc(CN2CC3CCCCC3C2)c(O)c2c1C[C@H]1C[C@H]3[C@H](N(C)C)C(O)=C(C(N)=O)C(=O)[C@@]3(O)C(O)=C1C2=O` (stereo partly drawn) [Compound 29, (4S,4aS,5aR,12aS)-9-((1H-isoindol-2(3H,3aH,4H,5H,6H,7H,7aH)-yl)methyl)-4,7-bis(dimethylamino)-3,10,12,12a-tetrahydroxy-1,11-dioxo-1,4,4a,5,5a,6,11,12a-octahydrotetracene-2-carboxamide], the MIC is 2 µg/mL (≈ 3.36 µM) with Acinetobacter baumannii (Table 4, agar dilution); 0.25 µg/mL (≈ 0.42 µM) in experiment [3]; 0.125 µg/mL (≈ 0.21 µM) with Enterococcus faecalis; 1 µg/mL (≈ 1.68 µM) against Escherichia coli (Table 4); 4 µg/mL (≈ 6.73 µM) in the experiment on Klebsiella pneumoniae (Table 4); 1 µg/mL (≈ 1.68 µM) in [2] (Table 4, agar dilution). The compound further had a minimal inhibitory concentration (MIC) in the experiment with Streptococus agalactiae of 0.25 µg/mL (≈ 0.42 µM).
Take `CN(C)c1cc(CN2CCC3CCCCC3C2)c(O)c2c1CC1CC3[C@H](N(C)C)C(O)=C(C(N)=O)C(=O)[C@@]3(O)C(O)=C1C2=O` (some centres unmarked) [Compound c, reference compound]: the MIC in the experiment with Acinetobacter baumannii (Table 4, agar dilution) is 4 µg/mL (≈ 6.57 µM); in experiment [3], 0.5 µg/mL (≈ 0.821 µM); in the experiment on Enterococcus faecalis, 0.5 µg/mL (≈ 0.821 µM); against Escherichia coli (Table 4), 4 µg/mL (≈ 6.57 µM); with Klebsiella pneumoniae (Table 4) it was 16 µg/mL (≈ 26.3 µM); in experiment [2] (Table 4, agar dilution), 1 µg/mL (≈ 1.64 µM). This compound also registered a minimum inhibitory concentration (MIC) in the experiment on Streptococus agalactiae of 0.25 µg/mL (≈ 0.411 µM).
Take `CN(C)c1cc(CN2CCC3(CCCC3)CC2)c(O)c2c1CC1CC3[C@H](N(C)C)C(O)=C(C(N)=O)C(=O)[C@@]3(O)C(O)=C1C2=O` (some centres unmarked) [Compound d, reference compound]: the MIC with Acinetobacter baumannii (Table 3, agar dilution) was found to be 4 µg/mL (≈ 6.57 µM); in the experiment on Escherichia coli (Table 3), 2 µg/mL (≈ 3.29 µM); with Klebsiella oxytoca, 8 µg/mL (≈ 13.1 µM); with Klebsiella pneumoniae (Table 3), 8 µg/mL (≈ 13.1 µM); in [1], 2 µg/mL (≈ 3.29 µM); in [2] (Table 3, agar dilution), 1 µg/mL (≈ 1.64 µM).
